In patent US11174232B2, “Substituted heterocyclyl derivatives as CDK inhibitors” (Aurigene Discovery Technologies Limited, priority 2015, dated 2021):

Molecular target: CDK7/CycH/MNAT1 (Homo sapiens (Human), UniProt P50613)
Experiment: Biochemical Assay for CDK7 (TR-FRET kinase assay)
Settings: 60 min pre-incubation with kinase, 1 mM ATP; for inhibition at 10 µM: 10 μM compound
Summary of the method: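 TR-FRET with 5 nM CDK7/CycH/MNAT1, compound pre-incubated 60 min at room temperature, then 100 nM ULight-MBP and 1 mM ATP for 60 min; stopped with EDTA, Eu anti-phospho-MBP read at 665/615 nm. 1% DMSO; IC50 from sigmoidal fit. Time-dependence tested with 20, 60, 180 min pre-incubation.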

Sequence of CDK7/CycH/MNAT1 (P50613 whole entry): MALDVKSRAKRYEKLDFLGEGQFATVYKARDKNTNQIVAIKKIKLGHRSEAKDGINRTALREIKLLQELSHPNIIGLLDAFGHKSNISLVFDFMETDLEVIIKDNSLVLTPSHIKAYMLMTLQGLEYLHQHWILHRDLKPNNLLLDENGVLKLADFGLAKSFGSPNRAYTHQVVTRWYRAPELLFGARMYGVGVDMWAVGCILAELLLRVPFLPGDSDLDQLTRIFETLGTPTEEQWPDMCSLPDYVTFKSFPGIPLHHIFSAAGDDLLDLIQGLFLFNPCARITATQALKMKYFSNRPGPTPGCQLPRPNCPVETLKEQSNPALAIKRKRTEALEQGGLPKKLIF
Sequence of CDK7/CycH/MNAT1 (P51946 whole entry partner): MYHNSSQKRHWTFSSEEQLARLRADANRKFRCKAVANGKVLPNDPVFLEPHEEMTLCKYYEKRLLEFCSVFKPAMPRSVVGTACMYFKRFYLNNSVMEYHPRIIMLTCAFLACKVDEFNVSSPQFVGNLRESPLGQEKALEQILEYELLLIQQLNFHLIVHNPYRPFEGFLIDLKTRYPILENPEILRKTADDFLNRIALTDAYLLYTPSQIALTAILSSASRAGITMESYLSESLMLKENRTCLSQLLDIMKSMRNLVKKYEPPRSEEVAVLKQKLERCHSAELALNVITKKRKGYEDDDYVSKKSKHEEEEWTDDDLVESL
Sequence of CDK7/CycH/MNAT1 (P51948 whole entry partner): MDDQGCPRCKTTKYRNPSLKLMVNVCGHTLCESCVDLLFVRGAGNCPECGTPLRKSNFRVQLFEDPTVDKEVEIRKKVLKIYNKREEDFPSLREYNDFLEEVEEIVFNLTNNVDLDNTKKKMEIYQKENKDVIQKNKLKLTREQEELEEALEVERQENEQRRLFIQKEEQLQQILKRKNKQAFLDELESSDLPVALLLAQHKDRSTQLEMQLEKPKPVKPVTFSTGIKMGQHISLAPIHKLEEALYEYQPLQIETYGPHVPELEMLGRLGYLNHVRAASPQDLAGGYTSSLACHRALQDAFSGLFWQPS

## C=CC(=O)Nc1cncc(-c2cccc(C(C)C(=O)Nc3cc(C4CC4)[nH]n3)c2)n1 (centres unmarked) [Compound 79, N-(6-(3-(1-((5-cyclopropyl-1H-pyrazol-3-yl)amino)-1-oxopropan-2-yl)phenyl)pyrazin-2-yl)acrylamide]
  inhibition at 10 µM: 102%
  IC50: < 25 nM

## CC(C(=O)Nc1cc(C2CC2)[nH]n1)c1cccc(-c2ccc(NC(=O)/C=C/CN3CC[C@H](F)C3)c(F)c2)c1 (stereo partly drawn) [Compound 80, (E)-N-(3′-(1-((5-cyclopropyl-1H-pyrazol-3-yl)amino)-1-oxopropan-2-yl)-3-fluoro-[1,1′-biphenyl]-4-yl)-4-((S)-3-fluoropyrrolidin-1-yl)but-2-enamide]
  inhibition at 10 µM: 95%
  IC50: 25 to 100 nM

## COC(=O)[C@@H]1CCCN1C/C=C/C(=O)Nc1ccc(-c2cccc(C(C)C(=O)Nc3cc(C4CC4)[nH]n3)c2)cn1 (stereo partly drawn) [Compound 81, methyl ((E)-4-((5-(3-(1-((5-cyclopropyl-1H-pyrazol-3-yl)amino)-1-oxopropan-2-yl)phenyl)pyridin-2-yl)amino)-4-oxobut-2-en-1-yl)-L-prolinate]
  inhibition at 10 µM: 100%
  IC50: 25 to 100 nM

## CC(C(=O)Nc1cc(C2CC2)[nH]n1)c1cccc(-c2ccc(NC(=O)/C=C/CN3CCC[C@H]3CC#N)nc2)c1 (stereo partly drawn) [Compound 82, (E)-4-((S)-2-(cyanomethyl)pyrrolidin-1-yl)-N-(5-(3-(1-((5-cyclopropyl-1H-pyrazol-3-yl)amino)-1-oxopropan-2-yl)phenyl)pyridin-2-yl)but-2-enamide]
  inhibition at 10 µM: 99%
  IC50: 25 to 100 nM

## C=CC(=O)Nc1ccc(C(=O)Nc2cccc(Nc3cc(CC)[nH]n3)c2)cc1 [Compound 83, 4-acrylamido-N-(3-((5-ethyl-1H-pyrazol-3-yl)amino)phenyl)benzamide]
  inhibition at 10 µM: 62%
  IC50: > 100 nM

## CC(C(=O)Nc1cc(C2CC2)[nH]n1)c1cccc(C2=CCN(C(=O)/C=C/CN(C)C)CC2)c1 (centres unmarked) [Compound 84, (E)-N-(5-cyclopropyl-1H-pyrazol-3-yl)-2-(3-(1-(4-(dimethylamino)but-2-enoyl)-1,2,3,6-tetrahydropyridin-4-yl)phenyl)propanamide]
  inhibition at 10 µM: 88%
  IC50: > 100 nM

## CC(C(=O)Nc1cc(C2CC2)[nH]n1)c1cccc(C2CCN(C(=O)/C=C/CN(C)C)CC2)c1 (centres unmarked) [Compound 85, (E)-N-(5-cyclopropyl-1H-pyrazol-3-yl)-2-(3-(1-(4-(dimethylamino)but-2-enoyl)piperidin-4-yl)phenyl)propanamide]
  inhibition at 10 µM: 74%
  IC50: > 100 nM

## C=CC(=O)Nc1ccc(-c2cccc(CC(=O)Nc3cc(C)[nH]n3)c2)cc1 [Compound 86, N-(3′-(2-((5-Methyl-1H-pyrazol-3-yl)amino)-2-oxoethyl)-[1,1′-biphenyl]-4-yl)acrylamide]
  inhibition at 10 µM: 48%

## C=CC(=O)Nc1ccc(-c2cccc(C(C)C(=O)Nc3cc(CC)[nH]n3)c2)cc1 (centres unmarked) [Compound 87, N-(3′-(1-((5-ethyl-1H-pyrazol-3-yl)amino)-1-oxopropan-2-yl)-[1,1′-biphenyl]-4-yl)acrylamide]
  inhibition at 10 µM: 89%
  IC50: > 100 nM

## C=CC(=O)Nc1ccc(-c2cccc(C(C)C(=O)Nc3cc(C(C)(C)C)[nH]n3)c2)cc1 (centres unmarked) [Compound 88, N-(3′-(1-((5-(tert-butyl)-1H-pyrazol-3-yl)amino)-1-oxopropan-2-yl)-[1,1′-biphenyl]-4-yl)acrylamide]
  inhibition at 10 µM: 62%
  IC50: > 100 nM

## CN(C)C/C=C/C(=O)Nc1ccc(C(=O)Nc2cccc(Nc3n[nH]c4ccccc34)c2)cc1 [Compound 89, (E)-N-(3-((1H-indazol-3-yl)amino)phenyl)-4-(4-(dimethylamino)but-2-enamido)benzamide]
  inhibition at 10 µM: 45%

## C=CC(=O)Nc1ccc(-c2cccc(C(C)C(=O)Nc3n[nH]c4ccccc34)c2)cc1 (centres unmarked) [Compound 90, N-(3′-(1-((1H-indazol-3-yl)amino)-1-oxopropan-2-yl)-[1,1′-biphenyl]-4-yl)acrylamide]
  inhibition at 10 µM: 83%
  IC50: > 100 nM

## CC(C(=O)Nc1n[nH]c2ccccc12)c1cccc(-c2ccc(NC(=O)/C=C/CN(C)C)cc2)c1 (centres unmarked) [Compound 91, (E)-N-(3′-(1-((1H-indazol-3-yl)amino)-1-oxopropan-2-yl)-[1,1′-biphenyl]-4-yl)-4-(dimethylamino)but-2-enamide]
  inhibition at 10 µM: 84%
  IC50: > 100 nM

## CC(C(=O)Nc1cc(C2CC2)[nH]n1)c1cccc(-c2cncc(NC(=O)/C=C/CN3CCCC3)n2)c1 (centres unmarked) [Compound 92, (E)-N-(6-(3-(1-((5-cyclopropyl-1H-pyrazol-3-yl)amino)-1-oxopropan-2-yl)phenyl)pyrazin-2-yl)-4-(pyrrolidin-1-yl)but-2-enamide]
  inhibition at 10 µM: 86%
  IC50: 25 to 100 nM

## C[C@H](C(=O)Nc1cc(C2CC2)[nH]n1)c1cccc(-c2ccc(NC(=O)/C=C/CN3CCOCC3)nc2)c1 [Compound 93, (S,E)-N-(5-(3-(1-((5-cyclopropyl-1H-pyrazol-3-yl)amino)-1-oxopropan-2-yl)phenyl)pyridin-2-yl)-4-morpholinobut-2-enamide]
  inhibition at 10 µM: 100%
  IC50: < 25 nM

## O=C(/C=C/CN1CCCC1)Nc1ccc(-c2cccc(C3(C(=O)Nc4cc(C5CC5)[nH]n4)CC3)c2)cn1 [Compound 94, (E)-N-(5-cyclopropyl-1H-pyrazol-3-yl)-1-(3-(6-(4-(pyrrolidin-1-yl)but-2-enamido)pyridin-3-yl)phenyl)cyclopropane-1-carboxamide]
  inhibition at 10 µM: 85%
  IC50: > 100 nM

## CC(C)(C(=O)Nc1cc(C2CC2)[nH]n1)c1cccc(-c2ccc(NC(=O)/C=C/CN3CCCC3)nc2)c1 [Compound 95, (E)-N-(5-(3-(1-((5-cyclopropyl-1H-pyrazol-3-yl)amino)-2-methyl-1-oxopropan-2-yl)phenyl)pyridin-2-yl)-4-(pyrrolidin-1-yl)but-2-enamide]
  inhibition at 10 µM: 71%
  IC50: > 100 nM
